The record followed here is BindingDB's records for patent US20250304549 (Sichuan Huiyu Pharmaceutical, 2025).

Molecules are shown by their SMILES. pIC50: −log10 of the molar value.

Experiment [1] has as its target Lysine-specific histone demethylase 1A (Homo sapiens, UniProt O60341). Description: In Vitro Enzyme Inhibition Assay - LSD1. Here is the method: Initially, a master solution of 90 μM test compound (dissolved in DMSO) was prepared and sequentially diluted with DMSO in a 5-fold concentration gradient to yield a total of 9 concentrations of the compound working solution 1 (90×). Subsequently these 9 concentrations of working solution 1 were sequentially diluted by a 30-fold concentration gradient, i.e., 2 μL of working solution 1 was aspirated and added to 58 μL of Buffer, mixed on a vortex mixer with sufficient shaking to yield 9 concentrations of the screening test compound working solution 2 (3×). […] The mixture was incubated at room temperature for 15 minutes. […] Afterward, 2 μL of a termination solution (containing 5.4 mM 2-PCPA) was added to each well, mixed evenly, and incubated for another 15 minutes. Finally 4 μL of a pre-mixed antibody solution of Eu-anti H3K4 (PerkinElmer, TRF0404-D) and allophycocyanin (Prozyme, PJ27S) (1:1) was added to each well, mixed evenly, and incubated for 60 minutes.

A further experiment deals with Histone deacetylase 1 (Homo sapiens, UniProt Q13547). Description: In Vitro Enzyme Inhibition Assay - HDAC. As for the experimental part: (§1) The effect of the compound on the enzymatic activity of pan-HDAC and two isoforms (HDAC1 and HDAC8) was examined using the HDAC-Glo I/II Assay and Screening System assay to assess the level of inhibition of HDAC protease activity and selectivity in each isoform. The proteins and detection reagents were from the HDAC-Glo™ I/II Assay and Screening System (Promega). A 1 mM stock solution of the compound was prepared in DMSO and diluted in a 5-fold gradient to create a series of 8 concentrations, and a specific volume of the highest concentration was diluted 25 times with HDAC Buffer to obtain 4× working solution of the compound. […] The 384-well plate was then read on a multifunctional microplate reader, with the Luminescence channel selected to record Luminescence values (RLU).
Histone deacetylase 1, sequence (Q13547 whole entry, canonical isoform): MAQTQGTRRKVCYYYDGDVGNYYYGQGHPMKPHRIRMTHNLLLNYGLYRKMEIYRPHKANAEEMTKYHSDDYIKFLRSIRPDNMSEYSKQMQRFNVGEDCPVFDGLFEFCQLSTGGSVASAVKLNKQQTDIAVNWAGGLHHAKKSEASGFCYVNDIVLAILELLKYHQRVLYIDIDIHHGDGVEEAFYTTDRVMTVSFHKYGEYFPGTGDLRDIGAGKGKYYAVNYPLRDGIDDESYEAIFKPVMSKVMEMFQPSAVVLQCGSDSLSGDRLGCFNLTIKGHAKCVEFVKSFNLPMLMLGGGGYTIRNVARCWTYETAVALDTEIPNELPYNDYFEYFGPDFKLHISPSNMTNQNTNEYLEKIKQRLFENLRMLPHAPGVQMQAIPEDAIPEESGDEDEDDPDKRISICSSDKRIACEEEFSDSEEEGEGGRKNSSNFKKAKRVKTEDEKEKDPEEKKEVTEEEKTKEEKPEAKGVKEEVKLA

In another experiment the target is T1, Histone deacetylase 8 (Homo sapiens, UniProt Q9BY41).
T1 sequence (Q9BY41 whole entry): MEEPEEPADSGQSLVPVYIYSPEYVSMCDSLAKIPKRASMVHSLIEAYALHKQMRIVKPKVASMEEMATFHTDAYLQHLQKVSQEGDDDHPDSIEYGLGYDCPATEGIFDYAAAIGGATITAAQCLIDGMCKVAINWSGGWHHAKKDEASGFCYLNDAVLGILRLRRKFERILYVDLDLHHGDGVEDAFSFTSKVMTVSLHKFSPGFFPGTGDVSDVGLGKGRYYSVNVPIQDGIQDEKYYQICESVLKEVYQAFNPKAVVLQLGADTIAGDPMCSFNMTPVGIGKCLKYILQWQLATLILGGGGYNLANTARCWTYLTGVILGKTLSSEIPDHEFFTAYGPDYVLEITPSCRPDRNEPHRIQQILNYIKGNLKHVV
Description: In Vitro Enzyme Inhibition Assay - HDAC. As for the experimental part: as §1

For a further experiment, the target named is Histone deacetylase 1/8 (Homo sapiens, UniProt Q13547+Q9BY41). Description: In Vitro Enzyme Inhibition Assay - HDAC. Here is the method:
as §1

Histone deacetylase 1/8, sequence (Q13547 whole entry, one chain of several): as the sequence (Q13547 whole entry, canonical isoform) above

Broadly, the pIC50 is the negative decadic logarithm of the IC50, by convention in mol/L. A high value points to a small IC50. For the compound `COC1=C(OCCCCCCC(=O)NO)CC(C2=C(c3ccc(C#N)c(F)c3)N=C(N3CCC(N)CC3)N3C=CNC23)C=C1` (stereo not given) [US20250304549, Example 20], the pIC50 in experiment [1] is 7.77; against Histone deacetylase 1, 6.51; against Histone deacetylase 8 it was 6.35.
On to `COc1ccc(-c2cnc(N3CCC(NCc4ccc(/C=C/C(=O)NO)cc4)CC3)c(F)c2-c2ccc(C#N)c(F)c2)cc1O` [US20250304549, Example 76], for which the pIC50 against Histone deacetylase 1/8 was 8.80; at Histone deacetylase 8 it was 6.80.
Take `CNC1CCN(C2N=CC(c3ccc(OCCCCCCC(=O)NO)c(O)c3)=C(c3ccc(C#N)c(F)c3)C2C#N)CC1` (stereo not given) [US20250304549, Example 24]: the figures for the pIC50 (in experiment [1]; on Histone deacetylase 1; on Histone deacetylase 8) were 9.39, 8.08 and 6.93, respectively.
Take `COc1ccc(-c2cnc(N3CCC(NCc4ccc(/C=C/CC(=O)NO)cc4)CC3)c(C#N)c2-c2ccc(C#N)c(F)c2)cc1O` [US20250304549, Example 169]: the pIC50 in experiment [1] was 9.38; against Histone deacetylase 1/8, 7.29; against Histone deacetylase 8, 5.85.
With `COc1ccc(C2=C(C3C=NC(C#N)=CC3)C(C#N)C(N3CCC(NCc4ccc(/C=C/C(=O)NO)cc4)CC3)C=C2)cc1O` (stereo not given) [US20250304549, Example 267], the pIC50 in experiment [1] was 8.13.
Take `COc1ccc(-c2cnc(N3CCCC(NCc4ccc(/C=C/C(=O)NO)cc4)CC3)c(C#N)c2-c2ccc(C#N)c(F)c2)cc1O` (stereo not given) [US20250304549, Example 149]: the pIC50 in experiment [1] is 9.27; on Histone deacetylase 1 it was 9.30; on Histone deacetylase 1/8 it was 8.98; against Histone deacetylase 8, 7.23.
Taken in the same sequence, the figures for `Cc1ccc(-c2cnc(N3CCC(NCc4cnc(/C=C/C(=O)NO)nc4)CC3)c(C#N)c2-c2ccc(C#N)c(F)c2)cc1O` [US20250304549, Example 148] were 8.98, 9.37, 8.61 and 7.23.
`N#Cc1ccc(-c2c(-c3ccc(/C=C/C(=O)NO)c(O)c3)cnc(N3CCC(NCc4ccc(/C=C/C(=O)NO)cc4)CC3)c2C#N)cc1F` [US20250304549, Example 90]: the pIC50 in experiment [1] is 8.10; against Histone deacetylase 1, 7.97; on Histone deacetylase 1/8, 7.71; at Histone deacetylase 8 it was 7.20.
Consider `O=C(/C=C/c1ccc(CNC(=O)c2cc(CN[C@@H]3C[C@H]3c3ccc(F)cc3)nc(-c3ccc(-n4cccn4)cc3)n2)cc1)NO` [US20250304549, Example 232], for which the pIC50 on Histone deacetylase 1/8 is 6.94.
